The source of these data is ChEMBL document CHEMBL3632564, “Synthesis of 17-membered azalides from a 16-membered macrolide utilizing amide-selective silane reduction” (2015).

The structures appear in SMILES notation. Converted amounts (≈) assume the structure as drawn.

Holding throughout (assay type): functional
One assay relates to Haemophilus influenzae. Description: Antibacterial activity against beta-lactamase-negative ampicillin-resistant Gram-negative Haemophilus influenzae ME587 after 18 hrs by agar dilution method. The settings on record: ME587, 18 h.
Assay [1] has as its system Streptococcus pneumoniae. Description: Antibacterial activity against penicillin-intermediate Gram-positive Streptococcus pneumoniae TY-5745 after 18 hrs by agar dilution method. The settings on record: TY-5745, 18 h.
In assay [2] the test system is Streptococcus pneumoniae. Description: Antibacterial activity against penicillin-resistant Gram-positive Streptococcus pneumoniae JPS317 after 18 hrs by agar dilution method. The settings on record: JPS317, 18 h. On the technique in general: In agar dilution the substance is mixed into plates at graded concentrations.
The test system of assay [3] is Streptococcus pneumoniae. As to the kind of experiment: Antibacterial activity against penicillin-susceptible Gram-positive Streptococcus pneumoniae S-223 after 18 hrs by agar dilution method. The following applies: S-223, 18 h.

As to `CC[C@H]1OC(=O)CC[C@H](C)[C@@H](O[C@@H]2O[C@H](C)C[C@H](N(C)C)[C@H]2O)[C@@H](CC=O)C[C@@H](C)CN(C)CC/C(C)=C/[C@@H]1CO`, the MIC against Haemophilus influenzae was 4 µg/mL (≈ 6.86 µM); in the assay on Streptococcus pneumoniae [1], 16 µg/mL (≈ 27.5 µM); in the assay on Streptococcus pneumoniae [2], 8 µg/mL (≈ 13.7 µM); in the assay on Streptococcus pneumoniae [3] it was 8 µg/mL (≈ 13.7 µM).

For `CC[C@H]1OC(=O)CC[C@H](C)[C@@H](O[C@@H]2O[C@H](C)C[C@H](N(C)C)[C@H]2O)[C@@H](CC=O)C[C@@H](C)N(C)CCC/C(C)=C/[C@@H]1CO`, the MIC with Haemophilus influenzae came out at 4 µg/mL (≈ 6.86 µM); in the assay on Streptococcus pneumoniae [1] it was 32 µg/mL (≈ 54.9 µM); against Streptococcus pneumoniae [2] it was 8 µg/mL (≈ 13.7 µM); with Streptococcus pneumoniae [3], 8 µg/mL (≈ 13.7 µM).

`CC[C@H]1OC(=O)CC[C@H](C)[C@@H](O[C@@H]2O[C@H](C)C[C@H](N(C)C)[C@H]2O)[C@@H](CC=O)C[C@@H](C)N(C)C/C=C/C(C)=C/[C@@H]1CO`: the MIC is 4 µg/mL (≈ 6.89 µM) with Haemophilus influenzae, 32 µg/mL (≈ 55.1 µM) against Streptococcus pneumoniae [1], 32 µg/mL (≈ 55.1 µM) in the assay on Streptococcus pneumoniae [2] and 16 µg/mL (≈ 27.5 µM) with Streptococcus pneumoniae [3].

For the compound `CC[C@H]1OC(=O)CC[C@H](C)[C@@H](O[C@@H]2O[C@H](C)C[C@H](N(C)C)[C@H]2O)[C@@H](CC=O)C[C@@H](C)C(=O)/C=C/C(C)=C/[C@@H]1CO`, the MIC amounted to 1 µg/mL (≈ 1.77 µM) with Haemophilus influenzae, 1 µg/mL (≈ 1.77 µM) against Streptococcus pneumoniae [1], 0.5 µg/mL (≈ 0.884 µM) with Streptococcus pneumoniae [2] and 0.25 µg/mL (≈ 0.442 µM) against Streptococcus pneumoniae [3].

`CC[C@H]1OC(=O)[C@H](C)[C@@H](O[C@H]2C[C@@](C)(OC)[C@@H](O)[C@H](C)O2)[C@H](C)[C@@H](O[C@@H]2O[C@H](C)C[C@H](N(C)C)[C@H]2O)[C@](C)(O)C[C@@H](C)CN(C)[C@H](C)[C@@H](O)[C@]1(C)O` [AZITHROMYCIN]: the MIC was determined as 1 µg/mL (≈ 1.34 µM) against Haemophilus influenzae, 1 µg/mL (≈ 1.34 µM) against Streptococcus pneumoniae [1], 8 µg/mL (≈ 10.7 µM) with Streptococcus pneumoniae [2] and 0.25 µg/mL (≈ 0.334 µM) in the assay with Streptococcus pneumoniae [3].
